In PubChem BioAssay (NCI):
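Briefly, cells in 96-well plates were exposed to five compound concentrations for 48 h, and endpoints were estimated by linear interpolation. TGI denotes the concentration required for complete inhibition of growth.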

Legend:
Assay in all cases: growth of human tumour cells (NCI), 48 h
BT-549 breast = tested on: BT-549 breast
CAKI-1 renal = tested on: CAKI-1 renal
COLO 205 colon = tested on: COLO 205 colon
DU-145 prostate = tested on: DU-145 prostate
HCC-2998 colon = tested on: HCC-2998 colon
HL-60(TB) leukemia = tested on: HL-60(TB) leukemia
HOP-92 NSCLC = tested on: HOP-92 NSCLC
LOX IMVI melanoma = tested on: LOX IMVI melanoma
MALME-3M melanoma = tested on: MALME-3M melanoma
MDA-MB-435 = tested on: MDA-MB-435
MDA-N = tested on: MDA-N
NCI-H23 lung = tested on: NCI-H23 lung
OVCAR-5 ovarian = tested on: OVCAR-5 ovarian
OVCAR-8 ovarian = tested on: OVCAR-8 ovarian
SF-295 CNS = tested on: SF-295 CNS
SK-MEL-28 melanoma = tested on: SK-MEL-28 melanoma
U251 CNS = tested on: U251 CNS
UO-31 renal = tested on: UO-31 renal

## Cc1cccc(NC(=O)O/N=C(\Cl)C(C)C)c1
BT-549 breast
  TGI: 12.2 µM
CAKI-1 renal
  TGI: 3.17 µM
COLO 205 colon
  TGI: 3.76 µM
DU-145 prostate
  TGI: 33 µM
HCC-2998 colon
  TGI: 33.8 µM
HL-60(TB) leukemia
  TGI: 4.27 µM
HOP-92 NSCLC
  TGI: 3.14 µM
LOX IMVI melanoma
  TGI: 3.67 µM
MALME-3M melanoma
  TGI: 5.29 µM
MDA-MB-435
  TGI: 31.7 µM
MDA-N
  TGI: 25 µM
NCI-H23 lung
  TGI: 29.1 µM
OVCAR-5 ovarian
  TGI: 35.8 µM
OVCAR-8 ovarian
  TGI: 34.2 µM
SF-295 CNS
  TGI: 32.1 µM
SK-MEL-28 melanoma
  TGI: 26.7 µM
U251 CNS
  TGI: 43.2 µM
UO-31 renal
  TGI: 30.3 µM

## CCOC(=O)c1nc2ccccc2nc1NCc1ccc(OC)c(OC)c1
BT-549 breast
  TGI: > 100 µM
CAKI-1 renal
  TGI: > 100 µM
COLO 205 colon
  TGI: > 100 µM
DU-145 prostate
  TGI: > 100 µM
HCC-2998 colon
  TGI: > 100 µM
HL-60(TB) leukemia
  TGI: > 100 µM
HOP-92 NSCLC
  TGI: > 100 µM
LOX IMVI melanoma
  TGI: > 100 µM
MALME-3M melanoma
  TGI: > 100 µM
MDA-MB-435
  TGI: > 100 µM
MDA-N
  TGI: > 100 µM
NCI-H23 lung
  TGI: > 100 µM
OVCAR-5 ovarian
  TGI: > 100 µM
OVCAR-8 ovarian
  TGI: > 100 µM
SF-295 CNS
  TGI: > 100 µM
SK-MEL-28 melanoma
  TGI: > 100 µM
U251 CNS
  TGI: > 100 µM
UO-31 renal
  TGI: > 100 µM

## CCCN(CCC)C(=S)N/N=C(/C)c1ccccc1O
BT-549 breast
  TGI: 47.9 µM
CAKI-1 renal
  TGI: > 100 µM
COLO 205 colon
  TGI: 21.8 µM
DU-145 prostate
  TGI: > 100 µM
HCC-2998 colon
  TGI: > 100 µM
HL-60(TB) leukemia
  TGI: > 29.5 µM
HOP-92 NSCLC
  TGI: > 76.8 µM
LOX IMVI melanoma
  TGI: > 100 µM
MALME-3M melanoma
  TGI: 28.8 µM
MDA-MB-435
  TGI: > 100 µM
MDA-N
  TGI: > 100 µM
NCI-H23 lung
  TGI: > 68.2 µM
OVCAR-5 ovarian
  TGI: > 62.9 µM
OVCAR-8 ovarian
  TGI: 33 µM
SF-295 CNS
  TGI: > 100 µM
SK-MEL-28 melanoma
  TGI: > 100 µM
U251 CNS
  TGI: > 57.8 µM
UO-31 renal
  TGI: > 100 µM

## Cc1cc(S(=O)(=O)Nc2nnc3c4ccccc4cnn23)c(S)cc1Cl
BT-549 breast
  TGI: > 92.3 µM
CAKI-1 renal
  TGI: > 100 µM
COLO 205 colon
  TGI: > 100 µM
DU-145 prostate
  TGI: > 100 µM
HCC-2998 colon
  TGI: > 100 µM
HL-60(TB) leukemia
  TGI: > 100 µM
HOP-92 NSCLC
  TGI: > 100 µM
LOX IMVI melanoma
  TGI: > 100 µM
MALME-3M melanoma
  TGI: > 100 µM
MDA-MB-435
  TGI: > 100 µM
MDA-N
  TGI: > 100 µM
NCI-H23 lung
  TGI: > 100 µM
OVCAR-5 ovarian
  TGI: > 100 µM
OVCAR-8 ovarian
  TGI: > 100 µM
SF-295 CNS
  TGI: > 100 µM
SK-MEL-28 melanoma
  TGI: > 100 µM
U251 CNS
  TGI: > 84.2 µM
UO-31 renal
  TGI: > 100 µM

## C=C1CCCC(C)(C)[C@H]1C/C=C1\CCOC1=O
BT-549 breast
  TGI: 26.9 µM
CAKI-1 renal
  TGI: 30.2 µM
COLO 205 colon
  TGI: 33.4 µM
DU-145 prostate
  TGI: 26.2 µM
HCC-2998 colon
  TGI: > 100 µM
HL-60(TB) leukemia
  TGI: 43.8 µM
HOP-92 NSCLC
  TGI: 26.6 µM
LOX IMVI melanoma
  TGI: 23.6 µM
MALME-3M melanoma
  TGI: 26.9 µM
MDA-MB-435
  TGI: 22 µM
MDA-N
  TGI: 33.3 µM
NCI-H23 lung
  TGI: 39 µM
OVCAR-8 ovarian
  TGI: 38.5 µM
SF-295 CNS
  TGI: 30.8 µM
SK-MEL-28 melanoma
  TGI: 29.6 µM
U251 CNS
  TGI: 30.4 µM
UO-31 renal
  TGI: 29.6 µM

## Cc1c2n(c3ccccc13)S(=O)(=O)c1ccccc1-2
BT-549 breast
  TGI: > 100 µM
CAKI-1 renal
  TGI: 27.4 µM
COLO 205 colon
  TGI: > 100 µM
DU-145 prostate
  TGI: > 100 µM
HCC-2998 colon
  TGI: > 100 µM
HL-60(TB) leukemia
  TGI: > 100 µM
HOP-92 NSCLC
  TGI: 73.6 µM
LOX IMVI melanoma
  TGI: > 100 µM
MALME-3M melanoma
  TGI: > 100 µM
MDA-MB-435
  TGI: > 100 µM
MDA-N
  TGI: > 100 µM
NCI-H23 lung
  TGI: > 100 µM
OVCAR-5 ovarian
  TGI: > 100 µM
OVCAR-8 ovarian
  TGI: 60.1 µM
SF-295 CNS
  TGI: 53.2 µM
SK-MEL-28 melanoma
  TGI: > 100 µM
U251 CNS
  TGI: 37.9 µM
UO-31 renal
  TGI: 41.6 µM

## CNCCCNC(=S)Cn1cc(C)c(=O)[nH]c1=O
BT-549 breast
  TGI: > 100 µM
CAKI-1 renal
  TGI: 39.4 µM
COLO 205 colon
  TGI: > 69.9 µM
DU-145 prostate
  TGI: > 80.6 µM
HCC-2998 colon
  TGI: > 69 µM
HL-60(TB) leukemia
  TGI: > 54 µM
HOP-92 NSCLC
  TGI: > 100 µM
LOX IMVI melanoma
  TGI: > 100 µM
MALME-3M melanoma
  TGI: > 100 µM
MDA-MB-435
  TGI: > 31.6 µM
MDA-N
  TGI: > 100 µM
NCI-H23 lung
  TGI: > 81.8 µM
OVCAR-5 ovarian
  TGI: > 100 µM
OVCAR-8 ovarian
  TGI: > 100 µM
SF-295 CNS
  TGI: > 54.3 µM
SK-MEL-28 melanoma
  TGI: > 75.4 µM
U251 CNS
  TGI: > 100 µM
UO-31 renal
  TGI: > 86.7 µM

## CC(=O)c1c(SCCN2CCOCC2)n(-c2ccccc2)c(=S)n(-c2ccccc2)c1=O
BT-549 breast
  TGI: 43 µM
CAKI-1 renal
  TGI: > 52.3 µM
COLO 205 colon
  TGI: 41.8 µM
DU-145 prostate
  TGI: 22.7 µM
HCC-2998 colon
  TGI: 28.5 µM
HL-60(TB) leukemia
  TGI: 51.9 µM
HOP-92 NSCLC
  TGI: 30.5 µM
LOX IMVI melanoma
  TGI: 26 µM
MALME-3M melanoma
  TGI: 58.6 µM
MDA-MB-435
  TGI: 33.6 µM
MDA-N
  TGI: 47.9 µM
NCI-H23 lung
  TGI: > 64.5 µM
OVCAR-5 ovarian
  TGI: > 100 µM
OVCAR-8 ovarian
  TGI: 39.5 µM
SF-295 CNS
  TGI: > 100 µM
SK-MEL-28 melanoma
  TGI: 57.8 µM
U251 CNS
  TGI: > 57 µM
UO-31 renal
  TGI: 27.1 µM

## O=[N+]([O-])C1=Cc2cc(Cl)ccc2OC1c1cccc2ccccc12 (stereo not given)
BT-549 breast
  TGI: 1.01 µM
CAKI-1 renal
  TGI: 1.22 µM
COLO 205 colon
  TGI: 6.71 µM
DU-145 prostate
  TGI: 4.7 µM
HCC-2998 colon
  TGI: 2.25 µM
HL-60(TB) leukemia
  TGI: > 100 µM
HOP-92 NSCLC
  TGI: 3 µM
LOX IMVI melanoma
  TGI: 0.983 µM
MALME-3M melanoma
  TGI: 2.91 µM
MDA-MB-435
  TGI: 5.35 µM
MDA-N
  TGI: 3.41 µM
NCI-H23 lung
  TGI: 5.46 µM
OVCAR-5 ovarian
  TGI: 4.05 µM
OVCAR-8 ovarian
  TGI: 1.42 µM
SF-295 CNS
  TGI: 6.19 µM
SK-MEL-28 melanoma
  TGI: 3.13 µM
U251 CNS
  TGI: 3.17 µM
UO-31 renal
  TGI: 2.51 µM

## COC(=O)c1c(C)[nH]c2c1C(=O)C(=O)c1nc(C)c(C)nc1-2
BT-549 breast
  TGI: 23 µM
CAKI-1 renal
  TGI: > 100 µM
COLO 205 colon
  TGI: 29.5 µM
DU-145 prostate
  TGI: 25.5 µM
HCC-2998 colon
  TGI: 24 µM
HL-60(TB) leukemia
  TGI: 29.2 µM
HOP-92 NSCLC
  TGI: 24.8 µM
LOX IMVI melanoma
  TGI: 24.1 µM
MALME-3M melanoma
  TGI: 15.7 µM
MDA-MB-435
  TGI: 28.5 µM
MDA-N
  TGI: 19.9 µM
NCI-H23 lung
  TGI: 36.9 µM
OVCAR-5 ovarian
  TGI: 27.6 µM
OVCAR-8 ovarian
  TGI: 26.8 µM
SF-295 CNS
  TGI: 18.3 µM
SK-MEL-28 melanoma
  TGI: 25.2 µM
U251 CNS
  TGI: 18.4 µM
UO-31 renal
  TGI: 35.7 µM

## O=C(O)c1nc2ccc(Cl)cc2[nH]c1=O
BT-549 breast
  TGI: > 100 µM
CAKI-1 renal
  TGI: > 100 µM
COLO 205 colon
  TGI: > 100 µM
DU-145 prostate
  TGI: > 100 µM
HCC-2998 colon
  TGI: > 100 µM
HL-60(TB) leukemia
  TGI: > 100 µM
HOP-92 NSCLC
  TGI: > 100 µM
LOX IMVI melanoma
  TGI: > 100 µM
MALME-3M melanoma
  TGI: > 100 µM
MDA-MB-435
  TGI: > 100 µM
MDA-N
  TGI: > 100 µM
NCI-H23 lung
  TGI: > 100 µM
OVCAR-5 ovarian
  TGI: > 100 µM
OVCAR-8 ovarian
  TGI: > 100 µM
SF-295 CNS
  TGI: > 100 µM
SK-MEL-28 melanoma
  TGI: > 100 µM
U251 CNS
  TGI: > 100 µM
UO-31 renal
  TGI: > 100 µM

## c1ccc2c(c1)nn1c3ccc4nonc4c3[n-][n+]21
BT-549 breast
  TGI: > 100 µM
CAKI-1 renal
  TGI: > 100 µM
COLO 205 colon
  TGI: > 100 µM
DU-145 prostate
  TGI: > 100 µM
HCC-2998 colon
  TGI: > 100 µM
HL-60(TB) leukemia
  TGI: > 100 µM
HOP-92 NSCLC
  TGI: > 100 µM
LOX IMVI melanoma
  TGI: > 100 µM
MALME-3M melanoma
  TGI: > 100 µM
MDA-MB-435
  TGI: > 100 µM
MDA-N
  TGI: > 100 µM
NCI-H23 lung
  TGI: > 100 µM
OVCAR-5 ovarian
  TGI: > 100 µM
OVCAR-8 ovarian
  TGI: > 100 µM
SF-295 CNS
  TGI: > 100 µM
SK-MEL-28 melanoma
  TGI: > 100 µM
U251 CNS
  TGI: > 100 µM
UO-31 renal
  TGI: > 100 µM
